Source: patent US11466044B2 (WAYNE STATE UNIVERSITY, priority 2017, dated 2022)
Converted amounts (≈) assume the structure as drawn. Where two headings read alike, the source gives them in different places.

Key:
[1] = test system: Klebsiella pneumonia AG215; experiment: MIC by broth microdilution, Klebsiella pneumonia; assay type: cell-based; settings: strain AG215 Klebsiella pneumonia
[2] = test system: N. gonorrhoeae; experiment: Disk diffusion, N. gonorrhoeae; assay type: cell-based; settings: 25 nmol
[3] = test system: E coli carrying specific resistance determinants; experiment: MIC by broth microdilution, E coli carrying specific resistance determinants; assay type: cell-based; settings: for MIC: Escherichia coli
[4] = test system: Acinetobacter baumannii pittii AG225; experiment: MIC by broth microdilution, Acinetobacter baumannii; assay type: cell-based; settings: strain AG225 Acinetobacter baumannii pittii
[5] = test system: Enterobacter cloacae AG290; experiment: MIC by broth microdilution, Enterobacter cloacae; assay type: cell-based; settings: strain AG290 Enterobacter cloacae
[6] = test system: E coli wild type; experiment: MIC by broth microdilution, wild type E coli; assay type: cell-based; settings: for MIC: Escherichia coli
[7] = test system: P aeruginosa; experiment: MIC by broth microdilution, P aeruginosa isolates; assay type: cell-based, Pseudomonas aeruginosa; settings: for MIC: Pseudomonas aeruginosa
[8] = test system: mitochondrial ribosome (human chimeric); assay type: biochemical
From the text: (§1) The antiribosomal activity of these compounds was investigated with cell-free translation assays using both wild type bacterial ribosomes and hybrid ribosomes carrying eukaryotic decoding A sites enabling the prediction of selectivity.

[9] = test system: cytosolic ribosome (human chimeric); assay type: biochemical
From the text: as §1

[10] = test system: rabbit reticulocyte ribosomes; experiment: in-vitro translation assay, rabbit reticulocyte ribosomes; assay type: biochemical; settings: mammalian cytosolic ribosomes (rabbit)
[11] = test system: MRSA; experiment: MIC by broth microdilution, MRSA isolates; assay type: cell-based; settings: for MIC: Staphylococcus aureus, MRSA
[12] = test system: wild type bacterial ribosomes; experiment: in-vitro translation assay, bacterial ribosomes; assay type: biochemical
From the text: as §1

[13] = test system: A1555G mutant mitochondrial ribosome (human chimeric); experiment: in-vitro translation assay, human chimeric ribosomes, A1555G mutant mitochondrial decoding site; assay type: biochemical; settings: human mitochondrial decoding site with A1555G point mutation; read-out: IC50 Mitoch. A1555G
From the text: as §1

[14] = test system: M. abscessus; experiment: MIC by broth microdilution, M. abscessus; assay type: cell-based; settings: Mycobacteroides abscessus
[15] = test system: M. smegmatis SZ380; experiment: MIC by broth microdilution, M. smegmatis; settings: Mycolicibacterium smegmatis
[16] = ribosomes with a human mitochondrial decoding site, read-out: IC50 Mitoch.
[17] = ribosomes with a human cytosolic decoding site, read-out: IC50 Cytosolic
[18] = Mycobacterium smegmatis ribosomes, read-out: IC50 Bacterial

`CCC[C@@H]1C(CO)O[C@H](O[C@@H]2C(N)C[C@@H](NC(=O)[C@@H](O)CCN)C(O)[C@H]2O[C@@H]2O[C@H](CO)[C@H](O[C@H]3C[C@@H](CN)[C@@H](O)C(O)C3N)C2O)[C@@H](N)C1O` (stereo partly shown) [Compound 187] was tested, and the “MIC AG215 K. pneumon” value [1] was 0.5 µg/mL (≈ 0.675 µM), the “Disk diffusion 25 nmol N. gonorrhoeae” value [2] was 11 mm and the “MIC AG163 E. coli APH(3′)-I” value ([3]; clinical isolate AG163 APH(3′)-I, Table 2 (Example 4)) was 2 µg/mL (≈ 2.7 µM). For the same molecule, the “MIC AG166 E. coli APH(3′)-II” value ([3]; clinical isolate AG166 APH(3′)-II, Table 2 (Example 4)) was 2 µg/mL (≈ 2.7 µM), the “MIC AG037 E. coli APH(3′)-III” value ([3]; engineered strain AG037 APH(3′)-III, Table 2 (Example 4)) was 8 µg/mL (≈ 10.8 µM) and the “MIC pH421 E. coli APH(3′)-I” value ([3]; engineered strain pH421 APH(3′)-I, Table 2 (Example 4)) was 4-8 μg/ml. For the same molecule, the “MIC pH422 E. coli APH(3′)-II” value ([3]; engineered strain pH422 APH(3′)-II, Table 2 (Example 4)) was 0.5-1 μg/ml, the “MIC pH423 E. coli APH(3′)-VI” value ([3]; engineered strain pH423 APH(3′)-VI, Table 2 (Example 4)) was 1 μg/ml and the “MIC AG225 A. baumannii” value [4] was 2 µg/mL (≈ 2.7 µM). The “MIC AG290 E. cloacae” value [5] was 0.5 to 1 µg/mL, the “MIC AG160 E. coli WT” value ([6]; clinical isolate AG160 WT, Table 2 (Example 4)) was 2 µg/mL (≈ 2.7 µM) and the “MIC pH430 E. coli WT” value ([6]; engineered strain pH430 WT, Table 2 (Example 4)) was 0.5-1 μg/ml. For the same molecule, the “MIC AG212 E. coli” value ([6]; strain AG212 E. coli (ATCC25922)) was 2 µg/mL (≈ 2.7 µM) and the “MIC AG220 P. aerugin” value ([7]; strain AG220 Pseudomonas aeruginosa ATCC27853) was 2 to 4 µg/mL.

`CC(=O)N[C@H]1[C@@H](O[C@H]2[C@H](O[C@@H]3O[C@H](CO)[C@@H](O[C@H]4O[C@@H](CN)[C@@H](O)[C@H](O)[C@H]4N)[C@H]3O)[C@@H](O)[C@H](N)C[C@@H]2N)O[C@H](CN)[C@@H](O)[C@@H]1O` [DC-183] was tested, and the “Target specificity bacterial vs. Mitochondrial” value ([8]; relative target specificity, bacterial vs. human mitochondrial) was “low”, the IC50 [8, 16] was 93 µM and the “Target specificity bacterial vs. Cytosolic” value ([9]; relative target specificity, bacterial vs. human cytosolic) was “low”. The IC50 [9, 17] was 147 µM, the IC50 [10] was 103 µM and the “MIC AG038 MRSA” value ([11]; clinical isolate AG038) was greater than 32 µg/mL. The “MIC AG039 MRSA AAC(6′)-I ANT(4′)-I” value ([11]; clinical isolate AG039, AAC(6′)-I ANT(4′)-I) was greater than 32 µg/mL, the “MIC AG042 MRSA AAC(6′)-I ANT(4′)-I APH(2′)” value ([11]; clinical isolate AG042, AAC(6′)-I ANT(4′)-I APH(2′)) was greater than 32 µg/mL and the “MIC AG003 E. coli AAC(3)-II” value ([3]; clinical isolate AG003, AAC(3)-II) was greater than 32 µg/mL. The IC50 [12, 18] was 5300 nM, the “MIC AG001 E. coli WT” value ([6]; clinical isolate AG001, WT) was greater than 32 µg/mL and the “MIC AG055 E. coli WT” value ([6]; clinical isolate AG055, WT) was greater than 32 µg/mL. The IC50 [13] was 28 µM, the “MIC AG031 P. aer. APH(3′)-II” value ([7]; clinical isolate AG031, APH(3′)-II) was greater than 32 µg/mL and the “MIC AG032 P. aer. APH(3′)-II” value ([7]; clinical isolate AG032, APH(3′)-II) was greater than 32 µg/mL.

`NC[C@H]1O[C@H](O[C@H]2[C@H](O[C@@H]3O[C@H](CO)[C@@H](O)[C@H]3O)[C@@H](O)[C@H](N)C[C@@H]2N)[C@H](N)[C@@H](O)[C@@H]1O` [Ribostamycin, ribostamycin, reference compound] gave an IC50 ([8]; mitochondrial, Table 3 (Example 1), read-out: IC50 Mit) of 443 µM, an IC50 [8, 16] of 443 µM and an IC50 ([9]; cytosolic, Table 3 (Example 1), read-out: IC50 Cyt) of 484 µM. It also gave an IC50 [9, 17] of 484 µM, an MIC ([1]; Klebsiella pneumoniae, read-out: MIC AG215 K. pneumon) of 2 µg/mL (≈ 4.4 µM) and an IC50 [10] of 172 µM. It also gave an MIC ([14]; ATCC19977, ATCC 19977 WT, Table 5 (Example 3), read-out: MIC M. abscessus ATCC 19977 WT) of 128 µg/mL (≈ 282 µM), an MIC ([14]; read-out: MIC M. abscessus clinical isolate) of 128 µg/mL (≈ 282 µM) and an MIC ([14]; read-out: MIC M. abscessus engineered Δeis2) of 32 µg/mL (≈ 70.4 µM). It also gave an MIC ([11]; read-out: MIC AG039 MRSA AAC(6′)-I ANT(4′)-I) greater than 128 µg/mL, an MIC ([11]; read-out: MIC AG042 MRSA AAC(6′)-I ANT(4′)-I APH(2′)) greater than 128 µg/mL and an MIC ([11]; clinical isolate AG038, read-out: MIC AG038 MRSA) of 4 µg/mL (≈ 8.8 µM). It also gave an MIC ([11]; clinical isolate AG044, read-out: MIC AG044 MRSA) of 8 µg/mL (≈ 17.6 µM), an MIC ([3]; read-out: MIC AG003 E. coli AAC(3)-II) of 4 µg/mL (≈ 8.8 µM) and an MIC ([3]; read-out: MIC AG037 E. coli APH(3′)-III) of 32 to 64 µg/mL (≈ 70.4 to 141 µM). The MIC ([3]; read-out: MIC AG163 E. coli APH(3′)-I) was greater than 128 µg/mL, the MIC ([3]; read-out: MIC AG166 E. coli APH(3′)-II) was greater than 128 µg/mL and the MIC ([3]; read-out: MIC APH(3)-VI) was greater than 64 µg/mL. For the same molecule, the MIC ([3]; read-out: MIC APH(3′)-I) was greater than 64 µg/mL, the MIC ([3]; read-out: MIC APH(3′)-II) was greater than 64 µg/mL and the MIC ([3]; read-out: MIC APH(3′)-III) was 32 to 64 µg/mL (≈ 70.4 to 141 µM). The MIC ([3]; read-out: MIC E. coli AG106 AAC(2′)-Ia) was 128 µg/mL (≈ 282 µM), the MIC ([3]; read-out: MIC E. coli pGB2armA armA) was 2 µg/mL (≈ 4.4 µM) and the MIC ([3]; read-out: MIC E. coli pH434 AAC(2′)-Ib) was greater than 128 µg/mL. For the same molecule, the MIC ([3]; read-out: MIC pH421 E. coli APH(3′)-I) was greater than 128 µg/mL, the MIC ([3]; read-out: MIC pH422 E. coli APH(3′)-II) was 128 to 256 µg/mL (≈ 282 to 563 µM) and the MIC ([3]; read-out: MIC pH423 E. coli APH(3′)-VI) was greater than 128 µg/mL. The IC50 [12, 18] was 90 nM, the IC50 ([12]; bacterial ribosome, Table 3 (Example 1), read-out: IC50 Bac) was 90 nM and the MIC [4] was 4 µg/mL (≈ 8.8 µM). It also gave an MIC ([5]; read-out: MIC AG290 E. cloacae) of 4 µg/mL (≈ 8.8 µM), an MIC ([15]; SZ380, read-out: MIC M. smegmatis SZ380 WT, SZ380 WT, Table 5 (Example 3)) of 8 µg/mL (≈ 17.6 µM) and an MIC ([15]; SZ380, read-out: MIC SZ380 M. smegmatis, strain SZ380 Mycobacterium smegmatis) of 8 µg/mL (≈ 17.6 µM). The MIC ([6]; ATCC25922, strain AG212 E. coli (ATCC25922), read-out: MIC AG212 E. coli) was 4 µg/mL (≈ 8.8 µM), the MIC ([6]; WT, Table 3 (Example 1), read-out: MIC WT) was 2 µg/mL (≈ 4.4 µM) and the MIC ([6]; WT, Table 5 (Example 3), read-out: MIC E. coli WT) was 2 µg/mL (≈ 4.4 µM). The MIC ([6]; clinical isolate AG001, WT, read-out: MIC AG001 E. coli WT) was 4 µg/mL (≈ 8.8 µM), the MIC ([6]; clinical isolate AG055, WT, read-out: MIC AG055 E. coli WT) was 2 µg/mL (≈ 4.4 µM) and the MIC ([6]; clinical isolate AG160 WT, Table 2 (Example 4), read-out: MIC AG160 E. coli WT) was 4 µg/mL (≈ 8.8 µM). It also gave an MIC ([6]; engineered strain pH430 WT, Table 2 (Example 4), read-out: MIC pH430 E. coli WT) of 2 µg/mL (≈ 4.4 µM), an IC50 [13] of 68 µM and an MIC ([7]; ATCC27853, read-out: MIC AG220 P. aerugin) greater than 128 µg/mL. The MIC ([7]; read-out: MIC AG031 P. aer. APH(3′)-II) was greater than 128 µg/mL and the MIC ([7]; read-out: MIC AG032 P. aer. APH(3′)-II) was greater than 128 µg/mL.
